From patent US20250057164A1, “USE OF ISOXAZOLINECARBOXAMIDE FOR SPROUT INHIBITION” (BAYER AKTIENGESELLSCHAFT, priority 2021, published 2025)

Test system: stored potato tubers (Solanum tuberosum, variety: Columbia)
Experiment: Visual assessment of sprout development on stored potato tubers after spray application on a roller table
Type: in vivo
Protocol: Application was done on a roller table and were applied with a spray application covering the outside of the tubers homogeneously with the spray solution containing with the respective dose of compound of formula (I) and depending on the treatment with the additional MSO (methylated seed oil) as indicated in the following tables. The spray solutions were prepared to match an equivalent of 10 L water per ton potato.

## C=C[C@]1(C(=O)N[C@H]2CO[C@@H](C(=O)OC)C2)CC(c2cc(F)cc(F)c2)=NO1 (relative stereo) [compound of formula (I), methyl(2R*,4R*)-4-[[(5S)-3-(3,5-difluorophenyl)-5-vinyl-4H-isoxazole-5-carbonyl]amino]tetrahydrofuran-2-carboxylate]
0.2 g/to, MSO 0.5 L/to, SC 200, 0 DAA
  Relative inhibition of potato sprouting: 0%
0.2 g/to, MSO 0.5 L/to, SC 200, 71 DAA
  Relative inhibition of potato sprouting: 67%
2 g/to, MSO 0.5 L/to, SC 200, 0 DAA
  Relative inhibition of potato sprouting: 0%
2 g/to, MSO 0.5 L/to, SC 200, 71 DAA
  Relative inhibition of potato sprouting: 73%
2 g/to, no MSO, SC 200, 0 DAA
  Relative inhibition of potato sprouting: 0%
2 g/to, no MSO, SC 200, 28 DAA
  Relative inhibition of potato sprouting: 30%
2 g/to, no MSO, SC 200, 71 DAA
  Relative inhibition of potato sprouting: 18%
20 g/to, MSO 0.5 L/to, SC 200, 0 DAA
  Relative inhibition of potato sprouting: 0%
20 g/to, MSO 0.5 L/to, SC 200, 71 DAA
  Relative inhibition of potato sprouting: 93%
20 g/to, no MSO, SC 200, 0 DAA
  Relative inhibition of potato sprouting: 0%
20 g/to, no MSO, SC 200, 28 DAA
  Relative inhibition of potato sprouting: 45%
20 g/to, no MSO, SC 200, 71 DAA
  Relative inhibition of potato sprouting: 30%
200 g/to, MSO 0.5 L/to, SC 200, 0 DAA
  Relative inhibition of potato sprouting: 0%
200 g/to, MSO 0.5 L/to, SC 200, 71 DAA
  Relative inhibition of potato sprouting: 95%
